For 29 molecules, IC50 results are on record in US8658646B2, “Pyrrolopyrazine kinase inhibitors” (Hoffmann-LaRoche Inc., priority 2011, dated 2014).

The structures appear in SMILES notation.

For the test, the target named is T1, JAK3: Recombinant human kinase domain (Homo sapiens, UniProt P52333).
T1 construct: JAK3: Recombinant human kinase domain from Millipore (Cat #14-629) or prepared; purchased Millipore 14-629
Put plainly: Determination of IC50 of Janus Kinase (JAK) inhibition, radioactive end-point 33P-ATP assay, JAK3. Format: biochemical. To be noted: ATP 1.5 uM, peptide 50 uM, 20 minutes, read-out: JAK3-INHIB-DR/v1~NO ADDITIVE~Enzyme_Conc = 100.

T1 sequence (P52333 822-1111 limits assumed): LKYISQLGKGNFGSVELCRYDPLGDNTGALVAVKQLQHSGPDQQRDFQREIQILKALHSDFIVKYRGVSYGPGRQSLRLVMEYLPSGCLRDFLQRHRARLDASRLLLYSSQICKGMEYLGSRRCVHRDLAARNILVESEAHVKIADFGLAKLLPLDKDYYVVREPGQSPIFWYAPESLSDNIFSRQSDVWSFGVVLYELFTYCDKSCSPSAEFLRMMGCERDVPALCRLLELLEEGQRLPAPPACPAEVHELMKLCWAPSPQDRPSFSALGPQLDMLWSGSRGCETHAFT

For the molecule `COC[C@H](C)NC(=O)c1c[nH]c2ncc(-c3nn(Cc4ccccn4)c4cc(F)ccc34)nc12` [Example I-240, 2-(6-Fluoro-1-pyridin-2-ylmethyl-1H-indazol-3-yl)-5H-pyrrolo[2,3-b]pyrazine-7-carboxylic acid ((S)-2-methoxy-1-methyl-ethyl)-amide], the IC50 is 0.615 nM.

Take `C[C@@H](NC(=O)c1c[nH]c2ncc(-c3nn(C)c4cc(Cl)ccc34)nc12)[C@@H]1C[C@@H]1C#N` (single isomer, unassigned) [Example I-206]: the IC50 came to 17.6 nM.

For the molecule `C[C@@H](NC(=O)c1c[nH]c2ncc(-c3nn(CC(O)CO)c4cc(Cl)ccc34)nc12)C(=O)N1CC(C#N)C1` (stereo partly drawn) [Example I-94, 2-[6-Chloro-1-(2,3-dihydroxy-propyl)-1H-indazol-3-yl]-5H-pyrrolo[2,3-b]pyrazine-7-carboxylic acid [(R)-2-(3-cyano-azetidin-1-yl)-1-methyl-2-oxo-ethyl)-amide], the IC50 worked out at 12.6 nM.

On to `CC(NC(=O)c1c[nH]c2ncc(-c3nn(C)c4cc(F)ccc34)nc12)[C@H]1C[C@H](C#N)C1` (stereo partly drawn) [Example I-74, 2-(6-Fluoro-1-methyl-1H-indazol-3-yl)-5H-pyrrolo[2,3-b]pyrazine-7-carboxylic acid [1-(trans-3-cyano-cyclobutyl)-ethyl]-amide], for which the IC50 is 9.35 nM.

Regarding `C[C@@H](NC(=O)c1c[nH]c2ncc(-c3nn(C)c4cc(F)ccc34)nc12)c1ccc(C#N)cc1` [Example I-218, 2-(6-Fluoro-1-methyl-1H-indazol-3-yl)-5H-pyrrolo[2,3-b]pyrazine-7-carboxylic acid [(R)-1-(4-cyano-phenyl)-ethyl]-amide], the IC50 is 14.7 nM.

For the molecule `CC[C@@H](C)NC(=O)c1c[nH]c2ncc(-c3nn(C)c4cc(F)ccc34)nc12` [Example I-180, 2-(6-Fluoro-1-methyl-1H-indazol-3-yl)-5H-pyrrolo[2,3-b]pyrazine-7-carboxylic acid ((R)-sec-butyl)-amide], the IC50 was determined as 3.89 nM.

On to `C[C@@H](NC(=O)c1c[nH]c2ncc(-c3nn(CCO)c4cc(Cl)ccc34)nc12)C(=O)N1CC(C#N)C1` [Example I-90, 2-[6-Chloro-1-(2-hydroxy-ethyl)-1H-indazol-3-yl]-5H-pyrrolo[2,3-b]pyrazine-7-carboxylic acid [(R)-2-(3-cyano-azetidin-1-yl)-1-methyl-2-oxo-ethyl]-amide], for which the IC50 turned out to be 3.83 nM.

With `C[C@@H](NC(=O)c1c[nH]c2ncc(-c3cnc4ccccn34)nc12)C(=O)N1CC(C#N)C1` [Example I-220, 2-Imidazo[1,2-a]pyridin-3-yl-5H-pyrrolo[2,3-b]pyrazine-7-carboxylic acid [(R)-2-(3-cyano-azetidin-1-yl)-1-methyl-2-oxo-ethyl]-amide], the IC50 is 2.17 nM.

Regarding `C[C@@H](NC(=O)c1c[nH]c2ncc(-c3nn(C)c4cc(F)ccc34)nc12)c1cccc(Br)c1` [Example I-215, 2-(6-Fluoro-1-methyl-1H-indazol-3-yl)-5H-pyrrolo[2,3-b]pyrazine-7-carboxylic acid [(R)-1-(3-bromo-phenyl)-ethyl]-amide], the IC50 came out at 27.3 nM.

Take `Cn1nc(-c2cnc3[nH]cc(C(=O)N[C@@H](C(=O)N4CCC(C#N)CC4)C4CC4)c3n2)c2ccccc21` [Example I-1]: the IC50 came to 1.72 nM.

In the case of `Cn1nc(-c2cnc3[nH]cc(C(=O)N[C@@H](C(=O)N4CCC(C#N)CC4)C(C)(C)C)c3n2)c2cc(Cl)ccc21` [Example I-8, 2-(5-Chloro-1-methyl-1H-indazol-3-yl)-5H-pyrrolo[2,3-b]pyrazine-7-carboxylic acid [(R)-1-(4-cyano-piperidine-1-carbonyl)-2,2-dimethyl-propyl]-amide], the IC50 amounted to 2.83 nM.

Consider `Cn1nc(-c2cnc3[nH]cc(C(=O)N[C@@H](C(=O)N4CCC(C#N)CC4)C4CC4)c3n2)c2cc(Cl)ccc21` [Example I-3, 2-(5-Chloro-1-methyl-1H-indazol-3-yl)-5H-pyrrolo[2,3-b]pyrazine-7-carboxylic acid [(R)-2-(4-cyano-piperidin-1-yl)-1-cyclopropyl-2-oxo-ethyl]-amide], for which the IC50 amounted to 1.06 nM.

Turning to `C[C@@H](NC(=O)c1c[nH]c2ncc(-c3nn(C)c4cc(Cl)ccc34)nc12)C(=O)N1CC[C@@H](F)C1` [Example I-119, 2-(6-Chloro-1-methyl-1H-indazol-3-yl)-5H-pyrrolo[2,3-b]pyrazine-7-carboxylic acid [(R)-2-((R)-3-fluoro-pyrrolidin-1-yl)-methyl-2-oxo-ethyl]-amide], the IC50 turned out to be 3.64 nM.

Regarding `Cn1nc(-c2cnc3[nH]cc(C(=O)N[C@@H](C(=O)N4CCC(C#N)CC4)C(C)(C)C)c3n2)c2ccc(Cl)cc21` [Example I-19, 2-(6-Chloro-1-methyl-1H-indazol-3-yl)-5H-pyrrolo[2,3-b]pyrazine-7-carboxylic acid [(R)-1-(4-cyano-piperidine-1-carbonyl)-2,2-dimethyl-propyl]-amide], the IC50 worked out at 2.12 nM.

On to `CC(O)Cn1nc(-c2cnc3[nH]cc(C(=O)N[C@H](C)C(=O)N4CC(C#N)C4)c3n2)c2ccc(Cl)cc21` (stereo partly drawn) [Example I-95, 2-[6-Chloro-1-(2-hydroxy-propyl)-1H-indazol-3-yl]-5H-pyrrolo[2,3-b]pyrazine-7-carboxylic acid [(R)-2-(3-cyano-azetidin-1-yl)-1-methyl-2-oxo-ethyl]-amide], for which the IC50 was determined as 4.83 nM.

`C[C@H](NC(=O)c1c[nH]c2ncc(-c3nn(C)c4cc(Cl)cc(F)c34)nc12)C1CC1` [Example I-141, 2-(6-Chloro-4-fluoro-1-methyl-1H-indazol-3-yl)-5H-pyrrolo[2,3-b]pyrazine-7-carboxylic acid ((S)-1-cyclopropyl-ethyl)-amide]: the IC50 was 3.77 nM.

As to `C[C@@H](NC(=O)c1c[nH]c2ncc(-c3nn(C)c4cc(Cl)ccc34)nc12)C(=O)N1CCOCC1` [Example I-28, 2-(6-Chloro-1-methyl-1H-indazol-3-yl)-5H-pyrrolo[2,3-b]pyrazine-7-carboxylic acid ((R)-1-methyl-2-morpholin-4-yl-2-oxo-ethyl)-amide], the IC50 was found to be 84.6 nM.

Consider `C[C@@H](CO)NC(=O)c1c[nH]c2ncc(-c3nn(C)c4cc(Cl)ccc34)nc12` [Example I-164, 2-(6-Chloro-1-methyl-1H-indazol-3-yl)-5H-pyrrolo[2,3-b]pyrazine-7-carboxylic acid ((S)-2-hydroxy-1-methyl-ethyl)-amide], for which the IC50 amounted to 17 nM.

Turning to `C[C@@H](NC(=O)c1c[nH]c2ncc(-c3nn(CCN(C)C)c4cc(Cl)ccc34)nc12)C(=O)N1CC(C#N)C1` [Example I-229, 2-[6-Chloro-1-(2-dimethylamino-ethyl)-1H-indazol-3-yl]-5H-pyrrolo[2,3-b]pyrazine-7-carboxylic acid [(R)-2-(3-cyano-azetidin-1-yl)-1-methyl-2-oxo-ethyl]-amide], the IC50 was determined as 3.34 nM.

`N#CC1CCN(C(=O)[C@H](NC(=O)c2c[nH]c3ncc(-n4ncc5cc(Cl)ccc54)nc23)C2CC2)CC1` [Example I-66, 2-(5-Chloro-indazol-1-yl)-5H-pyrrolo[2,3-b]pyrazine-7-carboxylic acid [(R)-2-(4-cyano-piperidin-1-yl)-1-cyclopropyl-2-oxo-ethyl]-amide]: the IC50 is 2.17 nM.

As for `CCNC(=O)c1c[nH]c2ncc(-c3nn(C)c4cc(Cl)ccc34)nc12` [Example I-109, 2-(6-Chloro-1-methyl-1H-indazol-3-yl)-5H-pyrrolo[2,3-b]pyrazine-7-carboxylic acid ethylamide], the IC50 came out at 44.3 nM.

On to `CC(NC(=O)c1c[nH]c2ncc(-c3nn(C)c4cc(F)ccc34)nc12)[C@H]1C[C@@H](C#N)C1` (stereo partly drawn) [Example I-76, 2-(6-Fluoro-1-methyl-1H-indazol-3-yl)-5H-pyrrolo[2,3-b]pyrazine-7-carboxylic acid [1-(cis-3-cyano-cyclobutyl)-ethyl]-amide], for which the IC50 came out at 12.7 nM.

Consider `C[C@@H](NC(=O)c1c[nH]c2ncc(-c3nn(C)c4ccsc34)nc12)C(=O)N1CC(C#N)C1` [Example I-99, 2-(1-Methyl-1H-thieno[3,2-c]pyrazol-3-yl)-5H-pyrrolo[2,3-b]pyrazine-7-carboxylic acid [(R)-2-(3-cyano-azetidin-1-yl)-1-methyl-2-oxo-ethyl]-amide], for which the IC50 came out at 0.85 nM.

Turning to `CC(NC(=O)c1c[nH]c2ncc(-c3nn(C)c4cc(F)ccc34)nc12)c1ncco1` (centres unmarked) [Example I-49, 2-(6-Fluoro-1-methyl-1H-indazol-3-yl)-5H-pyrrolo[2,3-b]pyrazine-7-carboxylic acid (1-oxazol-2-yl-ethyl)-amide], the IC50 came out at 5.66 nM.

On to `Cn1nc(-c2cnc3[nH]cc(C(=O)N[C@@H](C(=O)N4CCC(C#N)CC4)C4CC4)c3n2)c2ccc(C3CC3)cc21` [Example I-9, 2-(6-Cyclopropyl-1-methyl-1H-indazol-3-yl)-5H-pyrrolo[2,3-b]pyrazine-7-carboxylic acid [(R)-2-(4-cyano-piperidin-1-yl)-1-cyclopropyl-2-oxo-ethyl]-amide], for which the IC50 was 4.01 nM.

On to `C[C@@H](NC(=O)c1c[nH]c2ncc(-c3nn(C)c4cc(Cl)ccc34)nc12)C1CC1` [Example I-16, 2-(6-Chloro-1-methyl-1H-indazol-3-yl)-5H-pyrrolo[2,3-b]pyrazine-7-carboxylic acid ((R)-1-cyclopropyl-ethyl)-amide], for which the IC50 was determined as 4.81 nM.

As for `C[C@@H](NC(=O)c1c[nH]c2ncc(-c3nn(C)c4c3CC(C)(C)CC4)nc12)C(=O)N1CC(C#N)C1` [Example I-13], the IC50 was determined as 31.1 nM.

Regarding `C[C@@H](NC(=O)c1c[nH]c2ncc(-c3nn(C)c4c3CCCC4)nc12)C(=O)N1CC(C#N)C1` [Example I-26, 2-(1-Methyl-4,5,6,7-tetrahydro-1H-indazol-3-yl)-5H-pyrrolo[2,3-b]pyrazine-7-carboxylic acid [(R)-2-(3-cyano-azetidin-1-yl)-1-methyl-2-oxo-ethyl]-amide], the IC50 is 5.7 nM.

For `COC[C@H](C)NC(=O)c1c[nH]c2ncc(-c3nn(CCN4CCOCC4)c4cc(F)ccc34)nc12` [Example I-238, 2-[6-Fluoro-1-(2-morpholin-4-yl-ethyl)-1H-indazol-3-yl]-5H-pyrrolo[2,3-b]pyrazine-7-carboxylic acid ((S)-2-methoxy-1-methyl-ethyl)-amide], the IC50 was determined as 0.815 nM.
